{"source": "patent US20140119985A1", "about": "“Photodynamic Control of Microbial Growth on Surfaces” (ORTNER CLEANROOM ENGINEERING GMBH, priority 2010, published 2014)", "key": {"Staphylococcus aureus [1]": {"system": "Staphylococcus aureus", "test": "Contact assay on dye-treated textile pieces", "format": "cell-based", "settings": "for cell growth: irradiation 1 min, distance 50 cm, about 10^4 cfu; for cfu calculated per ml cell culture: plates incubated 24 h; for number of colonies upon irradiation: distance 30 cm"}, "Klebsiella pneumoniae": {"system": "Klebsiella pneumoniae", "settings": "LED 623 nm", "method": "(§1) Typically, 3 μl of a growing cell culture having a titer of 7×10^7 cfu/ml were used in contact assays, whereas 50 μl were employed in plating assays. In some assays, the cell cultures were employed in a dilution of 10^−1, 10^−2, 10^−3, 10^−4, and 10^−5, respectively.\nFor contact assays, pieces of the textile fabric having a defined size of 1 cm×1 cm were employed.\n(§2) In contact assays, the distance between the radiation source and the piece of textile fabric was in a range between 10 cm and 60 cm.\nIn brief, the contact assays were performed as follows: Pieces of a textile fabric (ION-NOSTAT VI.2) having a defined size (1×1 cm) were immersed for 3 h in an aqueous solution of reactive dye, such as methylene blue (100 μg/ml each). After complete drying of the textile pieces, 3 μl of a growing cell culture were added to the surface of the textile pieces. The pieces were irradiated with appropriate radiation (light) for a given period of time. Then, the textile pieces were contacted with agar plates; and the plates were incubated at 37° C. for 24 h.\nThe contact assay was performed as described in Example 1 using an aqueous solution of diemethyl methylene blue (DMMB) and new methylene blue (NMB), respectively (100 μg/ml each) as well as a combination thereof. Staphylococcus aureus and Klebsiella pneumoniae were employed as test organisms. Irradiation was accomplished by means of a LED (High Power Alustar 3 W 10° LED×ON Rot, from Conrad, Hirschau, Germany) at a wavelength of 623 nm. The distance between the LED and the textile pieces was 50 cm."}, "[2]": {"system": "Stenotrophomonas maltophilia", "test": "Contact assay on dye-treated textile pieces", "format": "cell-based", "settings": "for cfu calculated per ml cell culture: plates incubated 48 h", "method": "as §1\n(§3) The textile fabric employed was a clean room textile, in particular ION-NOSTAT VI.2 (Dastex Reinraumzubehör, Muggensturm, Germany). For contact assays, pieces of the textile fabric having a defined size of 1 cm×1 cm were employed.\nas §2\n(§4) After complete drying of the textile pieces, 3 μl of a growing cell culture were added to the surface of the textile pieces. The pieces were irradiated with appropriate radiation (light) for a given period of time. Then, the textile pieces were contacted with agar plates; and the plates were incubated at 37° C. for 24 h."}, "Candida albicans [3]": {"system": "Candida albicans", "test": "Contact assay on dye-treated textile pieces", "format": "cell-based", "settings": "irradiation 1 min, 2 min, 3 min, laser 15 mW, 532 nm", "method": "as §1, §3, §2, §4"}, "Staphylococcus aureus [4]": {"system": "Staphylococcus aureus", "settings": "for colony forming units obtained: incubation with dye (3-5 min) without irradiation; for colonies detected: irradiation 3 min"}, "[5]": {"system": "Stenotrophomonas maltophilia", "settings": "dilution 10^−5", "method": "as §1\n(§5) Methylene blue (MB), dimethyl methylene blue (DMMB), new metylene blue (NMB), and toluidine blue (TB) were provided as solutions having a dye concentration of 100 μg/ml. 50 μl of either solution were used for plating assays.\n(§6) In brief, the plating assays were performed as follows: In a well of a (96 well) microtiter plate 50 μl of a growing cell culture were mixed with aqueous solution of reactive dye, such as methylene blue (100 μg/ml each). The samples were irradiated with appropriate radiation (light) for a given period of time. The samples (100 μl) were plated on agar plates. The plates were incubated at 37° C. for 24 h."}, "Candida albicans [6]": {"system": "Candida albicans", "settings": "dilution 10^−4, incubation period two days longer as compared to control", "method": "as §1, §5, §6"}, "[7]": {"settings": "1 × pre-irradiation (3 min) of textile before contact with cells"}, "[8]": {"settings": "2 × pre-irradiation (3 min each, 90 min between) of textile before contact with cells"}, "[9]": {"settings": "Control (dye, no irrad.), dilution 10^−5"}, "[10]": {"settings": "Irradiation for 3 min, dilution 10^−5"}, "[11]": {"settings": "irradiation 3 min, laser 15 mW, 532 nm"}, "[12]": {"settings": "textile immersed in dye 100 μg/ml, irradiation 3 min, laser 15 mW, 532 nm"}, "[13]": {"settings": "textile incubated with dye 100 μg/ml, no irradiation"}, "[14]": {"settings": "incubation with dye, mercury lamp 515-560 nm"}, "[15]": {"settings": "black light lamp, irradiation for 30 s"}, "[16]": {"settings": "black light lamp, irradiation for 3 min"}, "[17]": {"settings": "mercury lamp, irradiation for 30 s"}, "[18]": {"settings": "mercury lamp, irradiation for 3 min"}}, "note": "Read-outs that look alike come from different tables or passages of the source.", "data": [{"smiles": "Cc1cc(N(C)C)cc2[s+]c3cc(N(C)C)cc(C)c3nc12.[Cl-]", "note": "[dimethyl methylene blue, 3,7-bis(dimethylamino)-1,9-dimethyldiphenothiazin-5-ium chloride]", "values": [{"measurement": "cell growth", "setting": "Staphylococcus aureus [1]; LED 623 nm", "result": "no cell growth could be detected"}, {"measurement": "inhibition of cell growth", "setting": "Klebsiella pneumoniae; about 10^4 cfu", "result": "significant inhibition of cell growth"}, {"measurement": "cell numbers", "setting": "Klebsiella pneumoniae; after 5 min of irradiation", "result": "noticeable reduction of cell numbers"}, {"measurement": "reduction of cell numbers", "setting": "Klebsiella pneumoniae; irradiation period of 10 min", "result": "further increase"}, {"measurement": "dye released from stained textile pieces", "setting": "single immersion with acetone, acetic acid, and ethanol, data not shown", "result": "Trace amounts"}, {"measurement": "dye released from stained textile pieces", "setting": "two cycles of immersion in 99% acetone, 99% acetic acid, 1 M NaOH, 99% ethanol, stained with 100 mg/l", "result": "No dye"}]}, {"smiles": "CN(C)c1ccc2nc3ccc(N(C)C)cc3[s+]c2c1.[Cl-]", "note": "[methylene blue, 3,7-bis(dimethylamino)-phenothiazin-5-ium chloride]", "values": [{"measurement": "cfu calculated per ml cell culture", "setting": "Staphylococcus aureus [1]; [7]", "result": 0, "unit": "cfu/ml"}, {"measurement": "cfu calculated per ml cell culture", "setting": "Staphylococcus aureus [1]; [8]", "result": 0, "unit": "cfu/ml"}, {"measurement": "cfu calculated per ml cell culture", "setting": "Staphylococcus aureus [1]; [9]", "result": "1.7 × 10^8 cfu/ml"}, {"measurement": "cfu calculated per ml cell culture", "setting": "Staphylococcus aureus [1]; [10]", "result": 0, "unit": "cfu/ml"}, {"measurement": "number of colonies upon irradiation", "setting": "Staphylococcus aureus [1]; irradiation 2 min with LED1, 620-640 nm", "result": "significant reduction of the number of colonies"}, {"measurement": "number of colonies upon irradiation", "setting": "Staphylococcus aureus [1]; irradiation 2 min with LED2, 620-640 nm", "result": "significant reduction of the number of colonies"}, {"measurement": "growth inhibition", "setting": "Staphylococcus aureus [1]; [11]", "result": "complete"}, {"measurement": "colonies (cfu) after contact sampling", "setting": "Staphylococcus aureus [1]; [12]", "result": "no colonies"}, {"measurement": "growth after contact sampling without irradiation", "setting": "Staphylococcus aureus [1]; [13]", "result": "lawn of bacteria"}, {"measurement": "cfu calculated per ml cell culture", "setting": "[2]; [7]", "result": "1.0 × 10^5 cfu/ml"}, {"measurement": "cfu calculated per ml cell culture", "setting": "[2]; [8]", "result": "1.0 × 10^5 cfu/ml"}, {"measurement": "cfu calculated per ml cell culture", "setting": "[2]; [9]", "result": "1.1 × 10^8 cfu/ml"}, {"measurement": "cfu calculated per ml cell culture", "setting": "[2]; [10]", "result": "1.0 × 10^5 cfu/ml"}, {"measurement": "growth inhibition", "setting": "[2]; [11]", "result": "almost complete"}, {"measurement": "colonies (cfu) after contact sampling", "setting": "[2]; [12]", "result": "two colonies"}, {"measurement": "growth after contact sampling without irradiation", "setting": "[2]; [13]", "result": "lawn of bacteria"}, {"measurement": "microbial growth upon irradiation", "setting": "Candida albicans [3]", "result": "significant reduction of microbial growth"}, {"measurement": "cfu per ml", "setting": "Staphylococcus aureus [4]; black light lamp, irradiation for 30 s, dilution 10^−5", "result": "1.2 × 10^8 cfu/ml"}, {"measurement": "cfu per ml", "setting": "Staphylococcus aureus [4]; black light lamp, irradiation for 3 min, dilution 10^−5", "result": "1.5 × 10^7 cfu/ml"}, {"measurement": "colony forming units obtained", "setting": "Staphylococcus aureus [4]", "result": 177, "unit": "cfu"}, {"measurement": "colonies detected", "setting": "Staphylococcus aureus [4]; [14]", "result": "one colony"}, {"measurement": "cfu per ml", "setting": "Staphylococcus aureus [4]; irradiation 2 min with LED1, 620-640 nm, dilution 10^−5", "result": "1.2×10^7 cfu/ml"}, {"measurement": "cfu per ml", "setting": "Staphylococcus aureus [4]; irradiation 2 min with LED2, 620-640 nm, dilution 10^−5", "result": "2.0×10^6 cfu/ml"}, {"measurement": "colonies detected", "setting": "Staphylococcus aureus [4]; black light lamp 350-370 nm, dilution 10^−5", "result": 15}, {"measurement": "colonies detected", "setting": "Staphylococcus aureus [4]; mercury lamp 515-560 nm, dilution 10^−5", "result": "No colonies"}, {"measurement": "cfu per ml", "setting": "Staphylococcus aureus [4]; mercury lamp, irradiation for 30 s, dilution 10^−5", "result": "2.1 × 10^7 cfu/ml"}, {"measurement": "cfu per ml", "setting": "Staphylococcus aureus [4]; mercury lamp, irradiation for 3 min, dilution 10^−5", "result": "1.0 × 10^5 cfu/ml"}, {"measurement": "cfu per ml", "setting": "[5]; [15]", "result": "2.9 × 10^7 cfu/ml"}, {"measurement": "cfu per ml", "setting": "[5]; [16]", "result": 0, "unit": "cfu/ml"}, {"measurement": "cfu per ml", "setting": "[5]; [17]", "result": "1.4 × 10^7 cfu/ml"}, {"measurement": "cfu per ml", "setting": "[5]; [18]", "result": 0, "unit": "cfu/ml"}, {"measurement": "cfu per ml", "setting": "Candida albicans [6]; [15]", "result": "2.7 × 10^7 cfu/ml*"}, {"measurement": "cfu per ml", "setting": "Candida albicans [6]; [16]", "result": "2.3 × 10^7 cfu/ml*"}, {"measurement": "cfu per ml", "setting": "Candida albicans [6]; [17]", "result": "2.3 × 10^7 cfu/ml*"}, {"measurement": "cfu per ml", "setting": "Candida albicans [6]; [18]", "result": "2.2 × 10^7 cfu/ml*"}]}, {"smiles": "CCNc1cc2[s+]c3cc(NCC)c(C)cc3nc2cc1C.[Cl-]", "note": "[new methylene blue, 3,7-bis(ethylamino)-2,8-dimethylphenaza-thionium chloride]", "values": [{"measurement": "cell growth", "setting": "Staphylococcus aureus [1]; LED 623 nm", "result": "only a small reduction of cell growth"}, {"measurement": "reduction of cell growth", "setting": "Staphylococcus aureus [1]; LED 623 nm, irradiation for 2 min and 5 min, data not shown", "result": "more than 50%"}]}, {"smiles": "Cc1cc2nc3ccc(=[N+](C)C)cc-3sc2cc1N.[Cl-]", "note": "[toluidine blue]", "values": [{"measurement": "cfu calculated per ml cell culture", "setting": "Staphylococcus aureus [1]; [7]", "result": "9.0 × 10^4 cfu/ml"}, {"measurement": "cfu calculated per ml cell culture", "setting": "Staphylococcus aureus [1]; [8]", "result": "5.0 × 10^4 cfu/ml"}, {"measurement": "cfu calculated per ml cell culture", "setting": "Staphylococcus aureus [1]; [9]", "result": "8.9 × 10^6 cfu/ml"}, {"measurement": "cfu calculated per ml cell culture", "setting": "Staphylococcus aureus [1]; [10]", "result": 0, "unit": "cfu/ml"}, {"measurement": "colony forming units obtained", "setting": "Staphylococcus aureus [4]", "result": 89, "unit": "cfu"}, {"measurement": "colonies detected", "setting": "Staphylococcus aureus [4]; [14]", "result": "no colony"}]}]}
